IC50 data for 18 molecules are collected here from US10028938B2, “Antiviral agents and uses thereof” (Griffith University, priority 2014, dated 2018).

Read-outs that look alike come from different tables or passages of the source.

In one test the target is hPIV-3 HN (Human parainfluenza 3 virus, UniProt P08492). The test is classed as biochemical, hPIV-3 (strain C-243).
The target in another test is hPIV-1 NI (Human parainfluenza 1 virus, UniProt P16071). Nature of the test: biochemical. As to the method: IC50 values for a number of compounds of the first aspect were determined by standard assay methods previously described in Guillon, P et al, Nature Communications (2014).
Chain of hPIV-1 NI (P16071 whole entry): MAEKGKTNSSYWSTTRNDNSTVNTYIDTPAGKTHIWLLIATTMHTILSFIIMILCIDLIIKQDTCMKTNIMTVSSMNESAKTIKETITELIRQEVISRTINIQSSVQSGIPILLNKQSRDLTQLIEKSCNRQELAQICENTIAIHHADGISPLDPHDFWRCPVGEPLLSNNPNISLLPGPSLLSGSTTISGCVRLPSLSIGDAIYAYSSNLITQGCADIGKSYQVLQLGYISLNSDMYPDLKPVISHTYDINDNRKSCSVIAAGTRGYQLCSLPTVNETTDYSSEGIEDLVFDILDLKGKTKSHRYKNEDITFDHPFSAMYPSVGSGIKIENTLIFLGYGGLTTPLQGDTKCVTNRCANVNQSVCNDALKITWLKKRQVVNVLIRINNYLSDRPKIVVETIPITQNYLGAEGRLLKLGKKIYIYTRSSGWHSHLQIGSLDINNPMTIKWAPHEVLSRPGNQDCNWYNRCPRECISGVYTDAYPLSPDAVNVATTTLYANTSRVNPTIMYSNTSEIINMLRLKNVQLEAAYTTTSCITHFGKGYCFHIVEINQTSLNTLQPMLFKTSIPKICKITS
Where [1] appears, read: Table 5, read-out: hPIV-3 NI (IC50 values).

Chain of hPIV-3 HN (P08492 whole entry): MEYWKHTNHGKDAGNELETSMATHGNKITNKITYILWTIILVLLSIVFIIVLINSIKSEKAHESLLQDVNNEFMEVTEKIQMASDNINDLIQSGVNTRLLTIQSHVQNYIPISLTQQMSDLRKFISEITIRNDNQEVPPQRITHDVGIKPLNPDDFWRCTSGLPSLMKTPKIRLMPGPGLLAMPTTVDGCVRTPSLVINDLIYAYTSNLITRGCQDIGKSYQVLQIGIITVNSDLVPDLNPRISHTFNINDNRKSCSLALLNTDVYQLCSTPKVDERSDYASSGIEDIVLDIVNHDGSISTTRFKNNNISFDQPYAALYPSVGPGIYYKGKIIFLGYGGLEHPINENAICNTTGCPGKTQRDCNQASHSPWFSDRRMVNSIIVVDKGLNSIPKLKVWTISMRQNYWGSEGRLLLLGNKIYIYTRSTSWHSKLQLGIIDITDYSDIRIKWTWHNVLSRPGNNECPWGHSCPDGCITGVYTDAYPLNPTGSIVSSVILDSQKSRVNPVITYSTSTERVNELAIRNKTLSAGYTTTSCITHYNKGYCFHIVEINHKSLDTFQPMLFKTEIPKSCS

In the case of `CC(=O)N[C@H]1[C@H]([C@H](O)C(O)CO)OC(C(=O)O)=C[C@@H]1n1cc(-c2ccccc2C)nn1` (stereo partly drawn) [IE1172-82, Sodium 5-acetamido-2,6-anhydro-3,4,5-trideoxy-4-(4-(2-methylphenyl)-[1,2,3,]triazol-1-yl)-D-glycero-D-galacto-non-2-enonate], the concentration for half-maximal inhibition (IC50) amounted to 3.95 µM on hPIV-3 HN (setting [1]) and 57.2 µM against hPIV-1 NI.

Take `COCc1cn(C2C(F)[C@](F)(C(=O)O)OC([C@H](O)[C@H](O)CO)[C@@H]2NC(=O)C(C)C)nn1` (stereo partly drawn) [IE1257-24, 3,4,5-Trideoxy-3-fluoro-5-isobutyramido-4-(4-methoxymethyl-[1,2,3,]triazol-1-yl)-D-erythro-β-L-gluco-non-2-ulopyranosonic fluoride]: the IC50 worked out at 8.49 µM at hPIV-3 HN (setting [1]) and 0.36 µM against hPIV-1 NI.

Regarding `CC(=O)N[C@H]1[C@H]([C@H](O)[C@H](O)CO)OC(C(=O)O)=C[C@@H]1n1cc(-c2ccc(CO)cc2)nn1` [IE832-12, Sodium 5-acetamido-2,6-anhydro-3,4,5-trideoxy-4-(4-(4-hydroxymethylphenyl)-[1,2,3,]triazol-1-yl)-D-glycero-D-galacto-non-2-enonate], the half-maximal inhibitory concentration (IC50) on hPIV-3 HN (setting [1]) was found to be 51.9 µM; at hPIV-1 NI, 215 µM.

`CC(=O)N[C@H]1[C@H]([C@H](O)C(O)CO)OC(C(=O)O)=C[C@@H]1n1cc(-c2ccccc2Br)nn1` (stereo partly drawn) [IE1257-84, Sodium 5-acetamido-2,6-anhydro-4-(4-(2-bromophenyl)-[1,2,3,]triazol-1-yl)-3,4,5-trideoxy-D-glycero-D-galacto-non-2-enonate]: the IC50 on hPIV-3 HN (setting [1]) worked out at 2.19 µM; against hPIV-1 NI, 24.9 µM.

Regarding `COc1ccccc1-c1cn([C@H]2C=C(C(=O)O)O[C@@H]([C@H](O)[C@H](O)CO)[C@@H]2NC(C)=O)nn1` [IE832-37, Sodium 5-acetamido-2,6-anhydro-3,4,5-trideoxy-4-(4-(2-methoxyphenyl)-[1,2,3,]triazol-1-yl)-D-glycero-D-galacto-non-2-enonate], the concentration for half-maximal inhibition (IC50) turned out to be 2.4 µM on hPIV-3 HN (setting [1]) and 201 µM at hPIV-1 NI.

As for `COc1ccc(-c2cn([C@H]3C=C(C(=O)O)O[C@@H]([C@H](O)[C@H](O)CO)[C@@H]3NC(C)=O)nn2)cc1` [IE832-31, Sodium 5-acetamido-2,6-anhydro-3,4,5-trideoxy-4-(4-(4-methoxyphenyl)-[1,2,3,]triazol-1-yl)-D-glycero-D-galacto-non-2-enonate], the IC50 is 22.9 µM on hPIV-3 HN (setting [1]) and 303 µM on hPIV-1 NI.

Consider `COc1cccc(-c2cn([C@H]3C=C(C(=O)O)O[C@@H]([C@H](O)[C@H](O)CO)[C@@H]3NC(C)=O)nn2)c1` [IE832-20, Sodium 5-acetamido-2,6-anhydro-3,4,5-trideoxy-4-(4-(3-methoxyphenyl)-[1,2,3,]triazol-1-yl)-D-glycero-D-galacto-non-2-enonate], for which the IC50 on hPIV-3 HN (setting [1]) was determined as 6.28 µM; against hPIV-1 NI, 193 µM.

Take `CC(=O)N[C@H]1[C@H]([C@H](O)[C@H](O)CO)OC(C(=O)O)=C[C@@H]1n1cc2ccccc2c1C#N` [IE889-80, Sodium 5-acetamido-2,6-anhydro-4-(1-cyano-2H-isoindol-2-yl)-3,4,5-trideoxy-D-glycero-D-galacto-non-2-enonate]: the half-inhibitory concentration (IC50) at hPIV-3 HN (setting [1]) came to 2.68 µM; against hPIV-1 NI it was 16.9 µM.

`CCCc1cn([C@H]2C=C(C(=O)O)O[C@@H]([C@H](O)[C@H](O)CO)[C@@H]2NC(C)=O)nn1` [IE832-26, Sodium 5-acetamido-2,6-anhydro-3,4,5-trideoxy-4-(4-propyl-[1,2,3,]triazol-1-yl)-D-glycero-D-galacto-non-2-enonate]: the half-maximal inhibitory concentration (IC50) amounted to 67.7 µM at hPIV-3 HN (setting [1]) and 95.5 µM against hPIV-1 NI.

In the case of `CC(=O)N[C@H]1[C@H]([C@H](O)C(O)CO)OC(C(=O)O)=C[C@@H]1n1nnc(-c2ccccc2)c1-c1ccccc1` (stereo partly drawn) [IE1172-102, Sodium 5-acetamido-2,6-anhydro-3,4,5-trideoxy-4-(4,5-diphenyl-[1,2,3,]triazol-1-yl)-D-glycero-D-galacto-non-2-enonate], the IC50 at hPIV-3 HN (setting [1]) is above 1000 µM; against hPIV-1 NI, 793 µM.

Regarding `CC(C)Cc1cn([C@H]2C=C(C(=O)O)O[C@@H]([C@H](O)[C@H](O)CO)[C@@H]2NC(=O)C(C)C)nn1` [IE927-67, Sodium 2,6-anhydro-3,4,5-trideoxy-4-(4-isobutyl-[1,2,3,]triazol-1-yl)-5-isobutyramido-D-glycero-D-galacto-non-2-enonate], the half-maximal inhibitory concentration (IC50) at hPIV-3 HN (setting [1]) worked out at 114 µM; at hPIV-1 NI, 47.7 µM.

For `N#Cc1c2ccccc2cn1[C@H]1C=C(C(=O)O)O[C@@H]([C@H](O)[C@H](O)CO)[C@@H]1NC(=O)C(F)(F)F` [IE927-99, Sodium 2,6-anhydro-4-(1-cyano-2H-isoindol-2-yl)-3,4,5-trideoxy-5-(2,2,2-trifluoroacetamido)-D-glycero-D-galacto-non-2-enonate], the IC50 turned out to be 0.268 µM on hPIV-3 HN (setting [1]); 0.27 µM on hPIV-3 HN (text b135, read-out: IC50 values for hPIV-3 HN); 3.09 µM against hPIV-1 NI.

`CC(=O)N[C@H]1[C@H]([C@H](O)C(O)CO)OC(C(=O)O)=C[C@@H]1n1nncc1-c1ccccc1` (stereo partly drawn) [IE1172-45, Sodium 5-acetamido-2,6-anhydro-3,4,5-trideoxy-4-(5-phenyl-[1,2,3,]triazol-1-yl)-D-glycero-D-galacto-non-2-enonate]: the IC50 at hPIV-3 HN (setting [1]) was 315 µM; against hPIV-1 NI, above 1000 µM.

With `COc1ccccc1-c1cn([C@H]2C=C(C(=O)O)O[C@@H]([C@H](O)[C@H](O)CO)[C@@H]2NC(=O)C(C)C)nn1` [IE889-34, Sodium 2,6-anhydro-3,4,5-trideoxy-5-isobutyramido-4-(4-(2-methoxyphenyl)-[1,2,3,]triazol-1-yl)-D-glycero-D-galacto-non-2-enonate], the IC50 on hPIV-3 HN (setting [1]) stood at 3.23 µM; at hPIV-1 NI, 30.3 µM.

In the case of `CC(C)C(=O)N[C@H]1[C@H]([C@H](O)[C@H](O)CO)OC(C(=O)O)=C[C@@H]1n1cc2ccccc2c1C#N` [IE889-99, Sodium 2,6-anhydro-4-(1-cyano-2H-isoindol-2-yl)-3,4,5-trideoxy-5-isobutyramido-D-glycero-D-galacto-non-2-enonate], the 50% inhibitory concentration (IC50) at hPIV-3 HN (setting [1]) was 0.599 µM; against hPIV-1 NI it was 6.22 µM.

For the molecule `COCc1cnnn1[C@H]1C=C(C(=O)O)O[C@@H]([C@H](O)C(O)CO)[C@@H]1NC(C)=O` (stereo partly drawn) [IE1172-87, Sodium 5-acetamido-2,6-anhydro-3,4,5-trideoxy-4-(5-methoxymethyl-[1,2,3,]triazol-1-yl)-D-glycero-D-galacto-non-2-enonate], the IC50 turned out to be 77.4 µM at hPIV-3 HN (setting [1]) and 92.8 µM at hPIV-1 NI.

For the molecule `CC(=O)N[C@H]1[C@H]([C@H](O)[C@H](O)CO)OC(C(=O)O)=C[C@@H]1n1cc(-c2cccnc2)nn1` [IE832-27, Sodium 5-acetamido-2,6-anhydro-3,4,5-trideoxy-4-(4-(pyridin-3-yl)-[1,2,3,]triazol-1-yl)-D-glycero-D-galacto-non-2-enonate], the figures for the half-inhibitory concentration (IC50) at hPIV-3 HN (setting [1]) and at hPIV-1 NI were 106 µM and 302 µM, respectively.

As to `CC(=O)N[C@H]1[C@H]([C@H](O)[C@H](O)CO)OC(C(=O)O)=C[C@@H]1n1cnnn1` [IE832-98, Sodium 5-acetamido-2,6-anhydro-3,4,5-trideoxy-4-(1H-tetrazol-1-yl)-D-glycero-D-galacto-non-2-enonate], the figures for the half-maximal inhibitory concentration (IC50) on hPIV-3 HN (setting [1]) and against hPIV-1 NI were 27.4 µM and 7.44 µM, respectively.
